From publication PMC7076013 (Scientific Reports, 2020)

Experiments:
[1] = system: SW480, human colon carcinoma; assay: MTT cell viability, SW480; assay type: cell-based; conditions: 48 h
Method: (§1) Both melanoma and colon cancer are tumor types tightly connected with inflammation, while the expression of COX-2 in the selected cell lines was highly variable. Since a lot of discrepancies were found in the literature concerning the expression of this enzyme[5],[48]–[53], both COX-1 and COX-2 expression was analyzed by Western blot. […] The cells were treated with a wide range of doses of 4a–c, 5, and 6 for 48 h and cell viability was determined by MTT (3-(4,5-dimethylthiazol-2-yl)-2,5-diphenyltetrazolium bromide) and CV (crystal violet) assays. The obtained IC50 values were similar for both assays (Table 1).
(§2) Reagents were obtained from Sigma (St. Louis, MO) unless indicated otherwise. […]
(§3) S ystems, Minneapolis, MN USA). […] After being detached b y tr ypsinization, cells were seeded in defined number as follows: 2.5 × 10^3 cells/well in 96-well plates for viability assessment and 2 × 10^4 cells/well in 24-well plates for flow cytometry. […]
Before treatment, non- adherent cells were removed. Compounds 4a- c, 5 and 6 were dissolved in DMSO and stored at −20 °C for a m onth. Working solutions were freshl y prepared in 10% FCS-RPMI-1640. Controls were treated with culture medium containing the equivalent […]
3.2. Cell viability tests.
(§4) The number of viable cel ls in culture was estimated by the MTT (3-(4,5- dimethylthiazol- 2-yl ) - 2,5- diphenyltetrazolium bromide) and CV (crystal violet) tests. Cells were incubated in the presence of compounds 4a- c, 5 and 6 for 48 h, then the viability was measured as described.4 […]
The results were ex pressed as a p er centage of a v alue obtained for the untr eated control cells that was arbitrarily set to be 100%. A non- linear regression analysis of obtained results was done b y using Gr aphPad Prism software to calculat e IC50 values. […]

518A2 cells = assay: Ann/PI apoptosis and caspase activation, 518A2; assay type: cell-based, human; conditions: 518A2, 48 h
A375 cells [2] = assay: Intracellular NO (DAF), A375; assay type: cell-based, human; conditions: A375, 48 h; untreated 40 ± 7
Method: (§5) Given that analogue 5 is designed for NO release, the intracellular release of nitric oxide and production of reactive oxygen species (ROS)/reactive nitrogen species (RNS) was measured by means of redox-sensitive dyes — 4-amino-5-methylamino-2′,7′-difluorofluorescein diacetate (DAF) and dihydrorhodamine-123 (DHR) — after exposure for 48 h (Fig. 11). […] It is well documented that highly intensified production of ROS/RNS is connected with extreme cell damage and consequent cell death, whereas moderate ROS production is involved in the regulation of intracellular processes often involved in cell cycle arrest, proliferation, and differentiation[63],[64]. Apart from the moderate intracellular NO release, it was important to evaluate whether 5 released NO extracellularly. The production of NO from a nitrate group is a three-electron reduction process that can happen by a number of possible 2e^– and 1e^– pathways, commonly involving the initial liberation of a nitrite. A common method of detecting the release of NO in the extracellular compartment is the detection of nitrite ions by the Griess reaction, which quantifies the nitrite resulting from the oxidation of NO[66],[67]. […] Introduction of a nitrate moiety was also found to be beneficial in the case of rofecoxib. […]

A375 cells [3] = assay: Intracellular ROS/RNS (DHR), A375; assay type: cell-based, human; conditions: A375, 48 h; untreated 22.3 ± 5
Method: as §5

A375 cells [4] = assay: Fluorescence microscopy of DAPI-stained cells, A375; assay type: cell-based, human; conditions: A375, 72 h
Method: It was observed that the wound in the control of the A375 cells decreased from 172 ± 69 μm to 127 ± 13 μm, compared to the treated cells where it stayed at 177 ± 32 μm. […] (Fig. 10A).To confirm this, the cell proliferation rate was determined after 72 h of incubation in the presence of 5 of the carboxyfluorescein succinimidyl ester (CFSE)-stained cells. […] These findings were further confirmed by fluorescence microscopy of 4′,6-diamidino-2-phenylindole (DAPI)-stained cells (Fig. 10C), for which predominantly large nuclei with scarce nucleoli characteristic for interphase were observed on treatment of A375 cells with 5[60]. In addition, sporadic oblong nuclei with condensed chromatin, typical for apoptosis, were also observed (25 ± 9%). On the other hand in the DAPI-stained 518A2 cells typical apoptotic shrunken nuclei and apoptotic bodies were dominant (60 ± 2%)[61]. The different modes of action on the two melanoma cell lines indicate that cell specific characteristics define the outcome of the treatment with 5. […] Recent data on the compensatory proliferation in response to induced apoptotic cell death in the tumor tissue even favor a nonaggressive approach in the therapy of advanced malignancy.

[5] = system: four melanoma and four colon cancer cell lines; assay: MTT and CV viability, whole panel of cell lines; assay type: cell-based; conditions: 48 h
Method: as §1, §2, §3
Before treatment, non- adherent cells were removed. Compounds 4a- c, 5 and 6 were dissolved in DMSO and stored at −20 °C for a m onth. […]
as §4

Row | Substance | IC50 [1] [µM] | also measured
1 | 4-[4-(methylnitrooxy)phenyl]-3-(1,2-dicarba-closo-dodecaboranyl)furan-2(5 H)-one [Compound 5] | 16.6 ± 1.01 | apoptosis (Ann/PI, caspase) (518A2 cells): strong caspase-dependent apoptosis; intracellular NO, mean fluorescence (DAF) (A375 cells [2]): 60.5 ± 9.1; ROS/RNS production, mean fluorescence (DHR) (A375 cells [3]): 32.67 ± 8; oblong nuclei with condensed chromatin, typical for apoptosis (DAPI) (A375 cells [4]): 25 ± 9%; effect on cell viability across tested cell lines [5]: highest decrease in cell viability in all of the melanoma cell lines
2 | 4-[4-(hydroxymethyl)phenyl]-3-(1,2-dicarba-closo-dodecaboranyl)furan-2(5H)-one [Compound 4c] | 24.2 ± 1.05 | 

Further lines, with some results ahead:

Row | IC50 [1] [µM] | Substance | also measured
3 | 22.8 ± 0.7 | 4-phenyl-3-(1,2-dicarba-closo-dodecaboranyl)furan-2(5 H)-one [Compound 4a] | 
4 | 42.5 | 4-[4-(methylsulfonyl)phenyl]-3-(1,2-dicarba-closo-dodecaboranyl)furan-2(5H)-one [Compound 4b] | 
5 | > 50 | R,S-7-(2-oxo-4-(4-sulfamoylphenyl)-2,5-dihydrofuran-3-yl)-7,8-dicarba-nido-dodeca-hydroundecaborate(–1) sodium [Compound 6] | 
